From patent publication US20110189122A1, “Use of Molt-Accelerating Compounds, Ecdysteroids, Analogs Thereof, and Chitin Synthesis Inhibitors for Controlling Termites” (priority 2004, published 2011)

Legend:
C. formosanus [1] = experiment: Feeding ecdysteroid-treated filter paper to subterranean termites, 12-day exposure; format: in vivo; conditions: for days of exposure until some termites exhibited the jackknife position (incomplete molting): treated filter paper
Experimental: (§1) Termites were collected from three colonies each of C. formosanus and R. flavipes and were held in the laboratory at 26±1° C. and 98±2% RH before use Technical grade ecdysone was dissolved in methanol to obtain 0.1, 1, 10, 100 and 1,000-ppm solutions by serial dilution. Methanol solutions (i.e., 0 ppm AI) were used as untreated controls. Each concentration solution (0.2 ml) was pipetted onto […] Whatman No. 1 filter paper fitted into 5-cm-diameter glass Petri dishes and allowed to evaporate overnight.
(§2) This filter paper served as the cellulose food source for twenty-five termites, plus one soldier for R. flavipes or three soldiers for C. formosanus, which were introduced into each Petri dish after moistening the filter paper with 0.175 ml deionized water. For each species, two subsamples each of three colonies were used per concentration for a total of 72 experimental units. The bioassay units was held at 26±1° C. Observation was made daily for 12 days. Termites showing symptoms of incomplete molting were counted, and dead termites were removed from each unit. […] For each treatment and species combination, mean percent termites showing symptoms of incomplete molting and mortality among concentrations at 12 day were arcsine-root transformed and subjected to the analysis of variance (ANOVA). Significant differences (α=0.05) among concentrations were separated using Fisher's least significant difference (LSD) test (SAS Institute 1999).
(§3) 20-hydroxyecdysone is an ecdysone byproduct. Technical grade 20-hydroxyecdysone (20 E) was dissolved and used in the same manners as was ecdysone, as discussed above in Example 1.

R. flavipes = experiment: as above; format: in vivo; conditions: for days of exposure until some termites exhibited the jackknife position (incomplete molting): treated filter paper
Experimental: as §1, §2, §3

[2] = system: eastern subterranean termites (Reticulitermes flavipes); conditions: wood slice feeding blocks vacuum-impregnated with halofenozide, choice test; cited from earlier work
C. formosanus [3] = conditions: C. formosanus, 10,000 ppm, similar condition; cited from earlier work
[4] = system: eastern subterranean termites (EST), Reticulitermes flavipes (Kollar); experiment: Test #1 Choice Feeding Bait Test, Halofenozide+Hexaflumuron (treated filter paper vs. untreated SYP); format: in vivo; conditions: for % Surviving: 26 days; for mg consumed after 12 days (Mean ± SEM), treated FP: choice vs. SYP
Experimental: (§4) Test #1 Choice Feeding Bait Test, Halofenozide+Hexaflumuron. A paired choice feeding test was conducted to compare feeding response and resultant mortality caused by various combinations of technical grade halofenozide and hexaflumuron treated on filter paper (acetone carrier). The test apparatus consisted of two round plastic containers connected by a 7-cm long piece of 2.5-mm diameter (ID) tygon tubing. A known number of termite workers were introduced into a central harborage chamber (5.5 cm round container with ventilated lid) containing a vermiculite/sand/water mixture of ca. 1:1:1. The central harborage chamber was connected by the tygon tubing to the bait foraging chamber (without sand/vermiculite matrix) containing the paired feeding choices.
ESTs were given the choice to feed between untreated blocks of southern yellow pine (SYP) and treated filter paper. Halofenozide was tested individually at concentrations of 1250, 2500, and 5000 ppm. Hexaflumuron was tested at 5000 ppm, and also combined with each of the aforementioned concentrations of halofenozide. For comparative purposes, technical grade noviflumuron were also tested at 5000 ppm. After twelve days, all treatments were removed, oven-dried, and weighed for consumption. Filter paper was placed in all bioassay units that were held for fourteen more days. Surviving termites were then counted in each replicate. Thus, survival was counted at 26 days after initial exposure to the toxicant. Each treatment was replicated four times with 50 termites per replicate.

[5] = system: eastern subterranean termites (EST), Reticulitermes flavipes (Kollar); experiment: Test #2 Choice Feeding Bait Test, Halofenozide+Noviflumuron (treated filter paper vs. untreated SYP); format: in vivo; conditions: for mg consumed after 14 days (Mean ± SEM), untreated SYP: SYP block offered against FP with single active 5000 ppm; for No. Survivors/50 after 14 days (Mean ± SEM) / % Surviving / mg consumed after 14 days (Mean ± SEM), treated FP: single active 5000 ppm on filter paper; for % Surviving: 14 days; for mg consumed after 14 days (Mean ± SEM), treated FP: choice vs. SYP
Experimental: as §4
Test #2. Choice Feeding Bait Test, Halofenozide+Noviflumuron. A standard paired choice feeding test using the same methods described in Test #1 was conducted to compare feeding response and resultant mortality caused by various combinations of technical grade halofenozide and noviflumuron treated on filter paper (acetone carrier). EST were given the choice to feed between untreated blocks of southern yellow pine (SYP) and treated filter paper. Halofenozide and noviflumuron were tested individually at concentrations of 5000 ppm. Five thousand ppm (5000-ppm) noviflumuron was also tested in combination with 1250, 2500, or 5000 ppm halofenozide. After fourteen days, all treatments were removed, oven-dried, and weighed for consumption. Because of the rapid activity of noviflumuron, surviving termites were also counted in each replicate after only 14 days of feeding. Each treatment was replicated four times with 50 termites per replicate.

Amitermes wheeleri = experiment: Forced feeding test on treated purified cellulosic bait; format: in vivo; conditions: 5000 ppm noviflumuron on cellulosic bait
Experimental: A forced feeding test was conducted to compare mortality caused by different active ingredients treated on purified cellulosic bait. The test apparatus was the same as that described in Example 5. Noviflumuron was tested on the bait at 5000-ppm concentration, and also in combination with 5000-ppm Halofenozide Blank bait was also tested. Surviving termites were also counted at 28 days after initial exposure to the toxicant.

[6] = C. formosanus, 0.1 ppm, 12-day exposure
[7] = C. formosanus, 1 ppm, 12-day exposure
[8] = C. formosanus, 10 ppm, 12-day exposure
[9] = C. formosanus, 100 ppm, 12-day exposure
[10] = C. formosanus, 1,000 ppm, 12-day exposure
[11] = C. formosanus, 1,000 ppm, 12-day exposure, listed as 20 E
[12] = R. flavipes, 0.1 ppm, 12-day exposure
[13] = R. flavipes, 1 ppm, 12-day exposure
[14] = R. flavipes, 10 ppm, 12-day exposure
[15] = R. flavipes, 100 ppm, 12-day exposure
[16] = R. flavipes, 1,000 ppm, 12-day exposure
[17] = SYP block offered against FP with single active 5000 ppm
[18] = single active 1250 ppm on filter paper
[19] = single active 2500 ppm on filter paper
[20] = single active 5000 ppm on filter paper

Compound | % Incomplete Molting (±SE) (C. formosanus [1]; [6]) | % Incomplete Molting (±SE) (C. formosanus [1]; [7]) | % Incomplete Molting (±SE) (C. formosanus [1]; [8]) | % Incomplete Molting (±SE) (C. formosanus [1]; [9]) | days of exposure until some termites exhibited the jackknife position (incomplete molting) (C. formosanus [1]; C. formosanus) | % Incomplete Molting (±SE) (R. flavipes; [12]) | % Incomplete Molting (±SE) (R. flavipes; [13]) | % Incomplete Molting (±SE) (R. flavipes; [14]) | % Incomplete Molting (±SE) (R. flavipes; [15]) | days of exposure until some termites exhibited the jackknife position (incomplete molting) (R. flavipes; R. flavipes) | mg consumed after 12 days (Mean ± SEM), untreated SYP [4, 17] | No. Survivors/50 after 26 days (Mean ± SEM) [4, 20] | % Surviving [4, 20] | mg consumed after 12 days (Mean ± SEM), treated FP [4, 20] | mg consumed after 14 days (Mean ± SEM), untreated SYP [5] | No. Survivors/50 after 14 days (Mean ± SEM) [5] | % Surviving [5] | mg consumed after 14 days (Mean ± SEM), treated FP [5] | other results
CC(C)(O)CC[C@@H](O)[C@](C)(O)[C@H]1CC[C@@]2(O)C3=CC(=O)[C@@H]4C[C@@H](O)[C@@H](O)C[C@]4(C)[C@H]3CC[C@]12C [20-hydroxyecdysone] | 0.00 ± 0.00a % | 0.00 ± 0.00a % | 0.00 ± 0.00a % | 2.38 ± 1.19a % | approximately 7 days | 0.00 ± 0.00a % | 0.00 ± 0.00a % | 0.00 ± 0.00a % | 3.85 ± 1.40ab % | approximately 7 days |  |  |  |  |  |  |  |  | % Mortality (±SE) (C. formosanus [1]; [6]): 1.19 ± 0.75ab %; % Mortality (±SE) (C. formosanus [1]; [7]): 10.12 ± 9.42bc %; % Mortality (±SE) (C. formosanus [1]; [8]): 3.57 ± 2.26abc %; % Mortality (±SE) (C. formosanus [1]; [9]): 11.90 ± 5.43c %; % Incomplete Molting (±SE) (C. formosanus [1]; [10]): 26.19 ± 6.09b %; % Mortality (±SE) (C. formosanus [1]; [10]): 74.40 ± 3.62d %; % Incomplete Molting (±SE) (C. formosanus [1]; [11]): evident; % Mortality (±SE) (C. formosanus [1]; [11]): ca. 75%; % Mortality (±SE) (R. flavipes; [12]): 0.64 ± 0.64a %; % Mortality (±SE) (R. flavipes; [13]): 0.00 ± 0.00a %; % Mortality (±SE) (R. flavipes; [14]): 0.64 ± 0.64a %; % Mortality (±SE) (R. flavipes; [15]): 76.19 ± 11.28b %; % Incomplete Molting (±SE) (R. flavipes; [16]): 7.69 ± 3.29b %; % Mortality (±SE) (R. flavipes; [16]): 100%; % Incomplete Molting (±SE) (R. flavipes; R. flavipes, 1,000 ppm, 12-day exposure, listed as 20 E): evident
CC(C)(C)N(NC(=O)c1ccc(Cl)cc1)C(=O)c1ccccc1 [Halofenozide, halofenozide] |  |  |  |  |  |  |  |  |  |  | 14.97 ± 3.85 a mg | 23.25 ± 7.88 days | 46.5% | 9.33 ± 1.41 a mg | 8.35 ± 3.91 a mg | 22.25 ± 5.36 b | 44.5% | 10.12 ± 1.48 a mg | concentrations at which feeding deterrence occurs [2]: greater than 4,000 ppm; mortality (C. formosanus [3]): 50%; mg consumed after 12 days (Mean ± SEM), untreated SYP ([4]; SYP block offered against FP with single active 1250 ppm): 9.49 ± 2.57 a mg; mg consumed after 12 days (Mean ± SEM), untreated SYP ([4]; SYP block offered against FP with single active 2500 ppm): 7.92 ± 2.13 a mg; No. Survivors/50 after 26 days (Mean ± SEM) [4, 18]: 45.00 ± 2.04 a; % Surviving [4, 18]: 90.0%; mg consumed after 12 days (Mean ± SEM), treated FP [4, 18]: 16.05 ± 3.39 a mg; No. Survivors/50 after 26 days (Mean ± SEM) [4, 19]: 33.75 ± 6.56 bc; % Surviving [4, 19]: 67.5%; mg consumed after 12 days (Mean ± SEM), treated FP [4, 19]: 18.70 ± 4.32 a mg
O=C(NC(=O)c1c(F)cccc1F)Nc1cc(Cl)c(OC(F)(F)C(F)F)c(Cl)c1 [Hexaflumuron, hexaflumuron] |  |  |  |  |  |  |  |  |  |  | 9.28 ± 3.55 b mg | 32.5 ± 5.48 bc | 65.0% | 21.20 ± 2.06 a mg |  |  |  |  | 
O=C(NC(=O)c1c(F)cccc1F)Nc1cc(Cl)c(OC(F)(F)C(F)C(F)(F)F)c(Cl)c1F (stereo not shown) [Noviflumuron, noviflumuron] |  |  |  |  |  |  |  |  |  |  | 1.77 ± 1.71 b mg | 5.00 ± 3.72 e | 10.0% | 16.17 ± 3.64 a mg | 2.58 ± 1.03 b mg | 13.50 ± 3.52 bc | 27.0% | 14.58 ± 2.20 a mg | No. Survivors/30 after 28 days (Amitermes wheeleri): reduced termite survivorship in half; % Surviving (Amitermes wheeleri; 28 days): 43%; No. Survivors/30 after 28 days (Amitermes wheeleri; listed as noviflumuron): 12; % Surviving ([5]; listed as noviflumuron): 27%
C[C@H]([C@H](O)CCC(C)(C)O)[C@H]1CC[C@@]2(O)C3=CC(=O)[C@@H]4C[C@@H](O)[C@@H](O)C[C@]4(C)[C@H]3CC[C@]12C [ecdysone] | 0.00 ± 0.00a % | 0.00 ± 0.00a % | 2.38 ± 2.38a % | 8.33 ± 5.95a % | approximately 7 days | 0.00 ± 0.00a % | 0.00 ± 0.00a % | 0.00 ± 0.00a % | 0.00 ± 0.00a % | approximately 7 days |  |  |  |  |  |  |  |  | mortality at 0.1 ppm (C. formosanus [1]; Coptotermes formosanus, 288 h, C. formosanus, 0.1 ppm, 12-day exposure, read-out: % Mortality (±SE)): 1.79 ± 1.22%; mortality at 1 ppm (C. formosanus [1]; Coptotermes formosanus, 288 h, C. formosanus, 1 ppm, 12-day exposure, read-out: % Mortality (±SE)): 1.19 ± 0.75%; mortality at 10 ppm (C. formosanus [1]; Coptotermes formosanus, 288 h, C. formosanus, 10 ppm, 12-day exposure, read-out: % Mortality (±SE)): 11.3 ± 6.55%; mortality at 100 ppm (C. formosanus [1]; Coptotermes formosanus, 288 h, C. formosanus, 100 ppm, 12-day exposure, read-out: % Mortality (±SE)): 100%; mortality at 1000 ppm (C. formosanus [1]; Coptotermes formosanus, 288 h, C. formosanus, 1,000 ppm, 12-day exposure, read-out: % Mortality (±SE)): 93.5 ± 6.55%; mortality at 0.1 ppm (R. flavipes; Reticulitermes flavipes, 288 h, R. flavipes, 0.1 ppm, 12-day exposure, read-out: % Mortality (±SE)): 0%; mortality at 1 ppm (R. flavipes; Reticulitermes flavipes, 288 h, R. flavipes, 1 ppm, 12-day exposure, read-out: % Mortality (±SE)): 0%; mortality at 10 ppm (R. flavipes; Reticulitermes flavipes, 288 h, R. flavipes, 10 ppm, 12-day exposure, read-out: % Mortality (±SE)): 0%; mortality at 100 ppm (R. flavipes; Reticulitermes flavipes, 288 h, R. flavipes, 100 ppm, 12-day exposure, read-out: % Mortality (±SE)): 60.3 ± 18.1%; mortality at 1000 ppm (R. flavipes; Reticulitermes flavipes, 288 h, R. flavipes, 1,000 ppm, 12-day exposure, read-out: % Mortality (±SE)): 100%
